Results as given in US8357703B2, “Pyridines” (Hoffmann-La Roche Inc., priority 2009, dated 2013).

Each molecule was assayed against T1, human GABA A α5β3γ2 receptor (Homo sapiens, UniProt P18507+P31644) (assay: [3H]flumazenil competition binding to HEK293 cells expressing human GABA A receptors). Settings: competition for [3H]flumazenil (0.5 nM for α5); HEK293 cells expressing human (transiently transfected) receptors; means of two determinations; read-out: hKi GABA Aα5.
T1 construct: expressed in transfected cells; host or cells: HEK293 (transiently transfected), membranes
Procedure: The affinity of compounds at GABA A receptor subtypes was measured by competition for [^3H]flumazenil (85 Ci/mmol; Roche) binding to HEK293 cells expressing rat (stably transfected) or human (transiently transfected) receptors of composition α1β3γ2, α2β3γ2, α3β3γ2 and α5β3γ2.
Cell pellets were suspended in Krebs-tris buffer (4.8 mM KCl, 1.2 mM CaCl2, 1.2 mM MgCl2, 120 mM NaCl, 15 mM Tris; pH 7.5; binding assay buffer), homogenized by polytron for ca. 20 sec on ice and centrifuged for 60 min at 4° C. (50000 g; Sorvall, rotor: SM24=20000 rpm). The cell pellets were resuspended in Krebs-tris buffer and homogenized by polytron for ca. 15 sec on ice. Protein was measured (Bradford method, Bio-Rad) and aliquots of 1 mL were prepared and stored at −80° C.
Radioligand binding assays were carried out in a volume of […] (96-well plates) which contained […] of cell membranes, [^3H]flumazenil at a concentration of 1 nM for α1, α2, α3 subunits and 0.5 nM for α5 subunits and the test compound in the range of […]. Nonspecific binding was defined by 10^−5 M diazepam and typically represented less than 5% of the total binding. Assays were incubated to equilibrium for 1 hour at 4° C. and harvested onto GF/C uni-filters (Packard) by filtration using a Packard harvester and washing with ice-cold wash buffer (50 mM Tris; pH 7.5). After drying, filter-retained radioactivity was detected by liquid scintillation counting. Ki values were calculated using Excel-Fit (Microsoft) and are the means of two determinations.
Representative test results, obtained by the above described assay measuring binding affinity to HEK293 cells expressing human (h) receptors, are shown in table 1 below.
Work on `CCCCc1noc(C)c1COc1ccc(C(=O)NC(C)CO)cn1` (racemic) [Example 9, Rac-6-((3-Butyl-5-methyl-isoxazol-4-yl)methoxy)-N-(2-hydroxy-1-methyl-ethyl)-nicotinamide] yielded a Ki of 3.1 nM. `CCCCc1noc(C)c1COc1ccc(C(=O)NC(C)CO)cn1` (single isomer, unassigned; (+)) [Example 11, (+)-6-((3-Butyl-5-methyl-isoxazol-4-yl)methoxy)-N-(2-hydroxy-1-methyl-ethyl)-nicotinamide] showed a Ki of 7.3 nM. Molecule `CCCc1noc(C)c1COc1ccc(C(=O)NC(C)C)cn1` [Example 1, N-Isopropyl-6-((5-methyl-3-propyl-isoxazol-4-yl)methoxy)-nicotinamide] has a Ki of 46 nM. `CCCc1noc(C)c1COc1ccc(C(=O)NC2CCOCC2)cn1` [Example 2, 6-((5-Methyl-3-propyl-isoxazol-4-yl)methoxy)-N-(tetrahydro-pyran-4-yl)-nicotinamide] gave a Ki of 50.8 nM. `Cc1onc(CCC(F)(F)F)c1COc1ccc(C(=O)NC(C)C)cn1` [Example 3, N-Isopropyl-6-[(5-methyl-3-(3,3,3-trifluoro-propyl)-isoxazol-4-yl)methoxy]-nicotinamide] was tested, and the Ki was 49 nM. `Cc1onc(CCC(F)(F)F)c1COc1ccc(C(=O)NC2CCOCC2)cn1` [Example 4, 6-[(5-Methyl-3-(3,3,3-trifluoro-propyl)-isoxazol-4-yl)methoxy]-N-(tetrahydro-pyran-4-yl)-nicotinamide] was tested, and the Ki was 39.9 nM. `CCCCc1noc(C)c1COc1ccc(C(=O)NC(C)C)cn1` [Example 5, 6-((3-Butyl-5-methyl-isoxazol-4-yl)methoxy)-N-isopropyl-nicotinamide] showed a Ki of 4.1 nM. Work on `CCCCc1noc(C)c1COc1ccc(C(=O)NC2CC2)cn1` [Example 6, 6-((3-Butyl-5-methyl-isoxazol-4-yl)methoxy)-N-cyclopropyl-nicotinamide] yielded a Ki of 6.5 nM. `CCCCc1noc(C)c1COc1ccc(C(=O)NC2CCOCC2)cn1` [Example 7, 6-((3-Butyl-5-methyl-isoxazol-4-yl)methoxy)-N-(tetrahydro-pyran-4-yl)-nicotinamide] gave a Ki of 5.2 nM. `CCCCc1noc(C)c1COc1ccc(C(=O)NC(C)(C)CO)cn1` [Example 8, 6-((3-Butyl-5-methyl-isoxazol-4-yl)methoxy)-N-(2-hydroxy-1,1-dimethyl-ethyl)-nicotinamide] showed a Ki of 15.2 nM. With `CCCCc1noc(C)c1COc1ccc(C(=O)NCCO)cn1` [Example 10, 6-((3-Butyl-5-methyl-isoxazol-4-yl)methoxy)-N-(2-hydroxy-ethyl)-nicotinamide] the Ki was 5.7 nM. Molecule `CCCCc1noc(C)c1COc1ccc(C(=O)N[C@@H](C)CO)cn1` [Example 12, (−)-6-((3-Butyl-5-methyl-isoxazol-4-yl)methoxy)-N-(2-hydroxy-1-methyl-ethyl)-nicotinamide] has a Ki of 3.8 nM. `CCCCc1noc(C)c1COc1ccc(C(=O)NCC(C)(C)O)cn1` [Example 13, 6-((3-Butyl-5-methyl-isoxazol-4-yl)methoxy)-N-(2-hydroxy-2-methyl-propyl)-nicotinamide] showed a Ki of 9.2 nM. `CCCCc1noc(C)c1COc1ccc(C(=O)NC2CCOC2)cn1` (centres unmarked) [Example 14, 6-((3-Butyl-5-methyl-isoxazol-4-yl)methoxy)-N-(tetrahydro-furan-3-yl)-nicotinamide] was tested, and the Ki was 5 nM. `CCCCc1noc(C)c1COc1ccc(C(=O)NC(CO)CO)cn1` [Example 15, 6-((3-Butyl-5-methyl-isoxazol-4-yl)methoxy)-N-(2-hydroxy-1-hydroxymethyl-ethyl)-nicotinamide] was tested, and the Ki was 5.7 nM. In the case of `CCCCc1noc(C)c1COc1ccc(C(=O)N[C@H]2CCOC2)cn1` [Example 16, 6-((3-Butyl-5-methyl-isoxazol-4-yl)methoxy)-N-(S)-tetrahydro-furan-3-yl-nicotinamide], the Ki is reported as 6.5 nM. `CCCCc1noc(C)c1COc1ccc(C(=O)NCC(C)O)cn1` (centres unmarked) [Example 17, 6-((3-Butyl-5-methyl-isoxazol-4-yl)methoxy)-N-(2-hydroxy-propyl)-nicotinamide] showed a Ki of 5.2 nM.
